Where “and” joins values, the source holds several entries; their conditions need not be identical. Equal entries are not always repeated.
Test system: C57BL/6 mice
Assay: Indirect calorimetry and exercise endurance under stepwise treadmill running
Type: in vivo, mouse
Settings: 30 mg/kg; for Respiratory quotient / CO2 Production (VCO2) / O2 Consumption (VO2): DS20060511 30 mg/kg, individual mice 1-7, Fig. 5a
Protocol: The mice were acclimatized to the treadmill by allowing them to run at 10 m min^−1 for 10 min on the day before the test. On the day of the test, the mice received oral administration of 30 mg kg^−1 of DS20060511 or vehicle 15 min before they were made to run. The treadmill was started at a velocity of 10 m min^−1, with the speed increased stepwise by 2 m min^−1 every 3 min, to assess the exercise endurance capacity as described previously. Measurements of the oxygen consumption (VO2) and exhaled carbon dioxide (VCO2) under treadmill running were conducted with the ARCO-2000 magnetic-type mass spectrometric calorimeter (ARCO System, Kashiwa, Japan) connected to the treadmill chamber (MB-2000, ARCO System). The RER was calculated as the VCO2/VO2 ratio and the substrate utilization rates were calculated using Frayn’s formula[51]: rate of glucose oxidation = 4.585VCO2 − 3.226VO2; rate of fat oxidation = 1.695VO2 − 1.701VCO2. The exercise endurance capacity under treadmill running was determined by measuring the time from the start to the time until the mice ceased to run because of exhaustion, which was defined as remaining on the shocker plate for more than 10 sec. Immediately after the exercise, the blood glucose and lactate levels were measured using Glutest Every and Lactate Pro2 (ARKRAY, Kyoto, Japan), respectively, in blood samples collected from the tail vein.

Q: What does the source list for `COc1ccc2c(C)c(C(=O)O)ccc2c1C1C2=C(CC(C)(C)CC2=O)OC2=C1C(=O)CC(C)(C)C2` [DS20060511]?
A: Respiratory quotient (2 min): 0.76 (2×) and 0.78 and 0.75 and 0.82 (2×) and 0.79; CO2 Production (VCO2) (3 min): 92.0 mL/min/kg and 71.1 mL/min/kg and 77.7 mL/min/kg and 83.7 mL/min/kg and 70.1 mL/min/kg and 74.8 mL/min/kg and 73.0 mL/min/kg; O2 Consumption (VO2) (3 min): 103.2 mL/min/kg and 101.7 mL/min/kg and 88.1 mL/min/kg and 95.2 mL/min/kg and 94.7 mL/min/kg and 120.2 mL/min/kg and 89.5 mL/min/kg; Respiratory quotient (3 min): 0.77 (2×) and 0.79 (2×) and 0.75 and 0.82 and 0.80; CO2 Production (VCO2) (4 min): 90.3 mL/min/kg and 73.1 mL/min/kg and 78.3 mL/min/kg and 89.7 mL/min/kg and 70.1 mL/min/kg and 72.9 mL/min/kg and 72.1 mL/min/kg; O2 Consumption (VO2) (4 min): 103.7 ml/min/kg and 110.0 ml/min/kg and 106.3 ml/min/kg and 93.1 ml/min/kg (2×) and 117.2 ml/min/kg and 90.4 ml/min/kg; Respiratory quotient (4 min): 0.77 (2×) and 0.81 (2×) and 0.75 and 0.66 and 0.78; CO2 Production (VCO2) (5 min): 91.5 mL/min/kg and 72.5 mL/min/kg and 78.6 mL/min/kg and 85.8 mL/min/kg and 66.5 mL/min/kg and 73.8 mL/min/kg and 71.7 mL/min/kg; O2 Consumption (VO2) (5 min): 103.7 mL/min/kg and 103.8 mL/min/kg and 83.5 mL/min/kg and 95.6 mL/min/kg and 90.5 mL/min/kg and 116.5 mL/min/kg and 90.3 mL/min/kg; Respiratory quotient (5 min): 0.78 and 0.80 (2×) and 0.76 and 0.83 and 0.77 and 0.79; CO2 Production (VCO2) (6 min): 87.9 mL/min/kg and 70.6 mL/min/kg and 76.9 mL/min/kg and 85.9 mL/min/kg and 73.0 mL/min/kg and 71.8 mL/min/kg and 71.2 mL/min/kg; O2 Consumption (VO2) (6 min): 100.7 mL/min/kg and 102.8 mL/min/kg and 90.9 mL/min/kg and 93.7 mL/min/kg and 92.0 mL/min/kg and 112.2 mL/min/kg and 87.4 mL/min/kg; Respiratory quotient (6 min): 0.78 and 0.81 and 0.76 and 0.84 and 0.80 and 0.77 (2×); CO2 Production (VCO2) (7 min): 93.5 mL/min/kg and 69.9 mL/min/kg and 76.8 mL/min/kg and 86.5 mL/min/kg and 72.9 mL/min/kg and 71.9 mL/min/kg and 70.2 mL/min/kg; O2 Consumption (VO2) (7 min): 101.1 mL/min/kg and 105.0 mL/min/kg and 90.7 mL/min/kg and 93.7 mL/min/kg and 90.0 mL/min/kg and 120.2 mL/min/kg and 86.5 mL/min/kg; Respiratory quotient (7 min): 0.78 (2×) and 0.81 and 0.76 and 0.82 and 0.80 and 0.77; CO2 Production (VCO2) (8 min): 88.9 mL/min/kg and 75.0 mL/min/kg and 78.4 mL/min/kg and 85.8 mL/min/kg and 72.7 mL/min/kg and 72.1 mL/min/kg and 69.7 mL/min/kg; O2 Consumption (VO2) (8 min): 103.5 mL/min/kg and 107.7 mL/min/kg and 91.4 mL/min/kg and 93.1 mL/min/kg and 101.3 mL/min/kg and 113.1 mL/min/kg and 92.7 mL/min/kg; Respiratory quotient (8 min): 0.79 and 0.81 and 0.76 and 0.80 (2×) and 0.77 and 0.69; CO2 Production (VCO2) (9 min): 95.5 mL/min/kg and 73.8 mL/min/kg and 77.9 mL/min/kg and 84.5 mL/min/kg and 74.4 mL/min/kg and 71.2 mL/min/kg and 78.8 mL/min/kg; O2 Consumption (VO2) (9 min): 100.3 mL/min/kg and 103.6 mL/min/kg and 93.8 mL/min/kg and 94.2 mL/min/kg and 95.0 mL/min/kg and 118.5 mL/min/kg and 89.8 mL/min/kg; Respiratory quotient (9 min): 0.81 and 0.82 (2×) and 0.78 and 0.79 and 0.76 and 0.83; CO2 Production (VCO2) (10 min): 92.6 ml/min/kg and 70.7 ml/min/kg and 80.1 ml/min/kg and 84.2 ml/min/kg (2×) and 72.0 ml/min/kg and 74.9 ml/min/kg; O2 Consumption (VO2) (10 min): 104.6 mL/min/kg and 102.1 mL/min/kg and 90.2 mL/min/kg and 95.3 mL/min/kg and 98.2 mL/min/kg and 113.5 mL/min/kg and 87.0 mL/min/kg; Respiratory quotient (10 min): 0.82 (2×) and 0.81 and 0.77 and 0.80 and 0.79 and 0.86; CO2 Production (VCO2) (11 min): 96.0 ml/min/kg and 73.8 ml/min/kg and 80.9 ml/min/kg and 84.3 ml/min/kg and 71.1 ml/min/kg (2×) and 86.5 ml/min/kg; O2 Consumption (VO2) (11 min): 106.8 mL/min/kg and 102.9 mL/min/kg and 84.9 mL/min/kg and 92.0 mL/min/kg and 101.1 mL/min/kg and 115.1 mL/min/kg and 89.8 mL/min/kg; Respiratory quotient (11 min): 0.83 and 0.82 (2×) and 0.76 and 0.84 and 0.77 and 0.85; CO2 Production (VCO2) (12 min): 97.3 mL/min/kg and 74.3 mL/min/kg and 80.0 mL/min/kg and 93.2 mL/min/kg and 68.6 mL/min/kg and 70.0 mL/min/kg and 89.3 mL/min/kg; O2 Consumption (VO2) (12 min): 103.8 mL/min/kg and 112.5 mL/min/kg and 85.8 mL/min/kg and 91.1 mL/min/kg and 105.1 mL/min/kg and 120.4 mL/min/kg and 90.9 mL/min/kg; Respiratory quotient (12 min): 0.81 and 0.82 and 0.77 (2×) and 0.83 and 0.80 and 0.85; CO2 Production (VCO2) (13 min): 101.9 mL/min/kg and 82.3 mL/min/kg and 78.0 mL/min/kg and 86.9 mL/min/kg and 68.9 mL/min/kg and 69.6 mL/min/kg and 93.3 mL/min/kg; O2 Consumption (VO2) (13 min): 102.8 mL/min/kg and 102.5 mL/min/kg and 86.7 mL/min/kg and 90.5 mL/min/kg and 109.1 mL/min/kg and 127.7 mL/min/kg and 94.9 mL/min/kg; Respiratory quotient (13 min): 0.80 and 0.87 and 0.76 and 0.85 and 0.79 and 0.77 and 0.86; CO2 Production (VCO2) (14 min): 100.6 mL/min/kg and 80.5 mL/min/kg and 79.5 mL/min/kg and 84.1 mL/min/kg and 69.5 mL/min/kg and 69.8 mL/min/kg and 95.1 mL/min/kg; O2 Consumption (VO2) (14 min): 102.1 mL/min/kg and 101.4 mL/min/kg and 88.4 mL/min/kg and 91.3 mL/min/kg and 109.8 mL/min/kg and 125.1 mL/min/kg and 95.0 mL/min/kg; Respiratory quotient (14 min): 0.80 and 0.85 and 0.78 and 0.83 and 0.79 and 0.76 and 0.87; CO2 Production (VCO2) (15 min): 92.4 mL/min/kg and 82.1 mL/min/kg and 81.9 mL/min/kg and 83.7 mL/min/kg and 69.2 mL/min/kg and 69.5 mL/min/kg and 105.4 mL/min/kg; O2 Consumption (VO2) (15 min): 105.0 mL/min/kg and 100.1 mL/min/kg and 87.5 mL/min/kg and 93.8 mL/min/kg and 120.2 mL/min/kg and 115.1 mL/min/kg and 96.2 mL/min/kg; Respiratory quotient (15 min): 0.80 and 0.85 and 0.78 and 0.84 and 0.79 and 0.74 and 0.88; CO2 Production (VCO2) (16 min): 98.8 mL/min/kg and 82.5 mL/min/kg; O2 Consumption (VO2) (16 min): 103.6 mL/min/kg and 108.6 mL/min/kg; Respiratory quotient (16 min): 0.79 and 0.85; Blood glucose (exercise tolerance test, individual mice): 124 mg/dL and 146 mg/dL and 95 mg/dL and 96 mg/dL and 149 mg/dL and 133 mg/dL and 119 mg/dL

From PMC8379256, “A xanthene derivative, DS20060511, attenuates glucose intolerance by inducing skeletal muscle-specific GLUT4 translocation in mice” (Communications Biology, 2021)
